Results as given in ChEMBL document CHEMBL2331479, “Superacid synthesis of halogen containing N-substituted-4-aminobenzene sulfonamides: new selective tumor-associated carbonic anhydrase inhibitors” (Bioorg Med Chem, 2013).
pKi: −log10 of the molar value.

Assays:
Carbonic anhydrase 9 = Carbonic anhydrase 9 (Homo sapiens, UniProt Q16790); test: Inhibition of human catalytic domain of carbonic anhydrase 9 preincubated for 15 mins by CO2 hydration stopped-flow assay
Homo sapiens [1] = organism: Homo sapiens; test: Selectivity ratio of Ki for human carbonic anhydrase 2 to Ki for human carbonic anhydrase 9
Carbonic anhydrase 1 = Carbonic anhydrase 1 (Homo sapiens, UniProt P00915); test: Inhibition of human recombinant carbonic anhydrase 1 preincubated for 15 mins by CO2 hydration stopped-flow assay
Carbonic anhydrase 1, sequence (P00915 whole entry): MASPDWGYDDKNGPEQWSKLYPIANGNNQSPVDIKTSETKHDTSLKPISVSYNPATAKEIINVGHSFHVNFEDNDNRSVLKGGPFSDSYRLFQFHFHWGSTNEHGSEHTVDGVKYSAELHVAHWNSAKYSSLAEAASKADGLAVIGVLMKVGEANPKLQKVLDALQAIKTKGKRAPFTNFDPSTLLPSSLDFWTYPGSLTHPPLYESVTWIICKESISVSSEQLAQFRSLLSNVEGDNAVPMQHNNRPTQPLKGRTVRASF

Homo sapiens [2] = organism: Homo sapiens; test: Selectivity ratio of Ki for human carbonic anhydrase 1 to Ki for human carbonic anhydrase 9
Carbonic anhydrase 12 = Carbonic anhydrase 12 (Homo sapiens, UniProt O43570); test: Inhibition of human catalytic domain of carbonic anhydrase 12 preincubated for 15 mins by CO2 hydration stopped-flow assay
Carbonic anhydrase 12, sequence (O43570 whole entry, the tested form may be a part): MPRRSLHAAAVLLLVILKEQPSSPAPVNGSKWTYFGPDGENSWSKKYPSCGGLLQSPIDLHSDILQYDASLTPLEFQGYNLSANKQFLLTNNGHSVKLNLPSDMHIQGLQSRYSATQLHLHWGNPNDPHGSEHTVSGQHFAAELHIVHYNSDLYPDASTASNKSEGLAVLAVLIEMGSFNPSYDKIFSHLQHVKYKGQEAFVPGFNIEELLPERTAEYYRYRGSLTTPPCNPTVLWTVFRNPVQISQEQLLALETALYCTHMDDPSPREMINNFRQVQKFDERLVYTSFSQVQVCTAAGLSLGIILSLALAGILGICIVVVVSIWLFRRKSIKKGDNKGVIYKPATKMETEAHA

Carbonic anhydrase 2 = Carbonic anhydrase 2 (Homo sapiens, UniProt P00918); test: Inhibition of human recombinant carbonic anhydrase 2 preincubated for 15 mins by CO2 hydration stopped-flow assay

pKi (Carbonic anhydrase 9)	Ratio Ki (Homo sapiens [1])	pKi (Carbonic anhydrase 1)	Ratio Ki (Homo sapiens [2])	pKi (Carbonic anhydrase 12)	pKi (Carbonic anhydrase 2)	Structure (SMILES)
	0.9	6.76	2.1	7.40	7.12	CC(C)(F)CNS(=O)(=O)c1ccc(N)cc1
5.68	1.7	5.29	2.5	5.73	5.46	CCCNS(=O)(=O)c1ccc(N)cc1
7.36	1.3	6.76	4	7.13	7.24	CC(F)CNc1ccc(S(N)(=O)=O)cc1 (configuration not stated)
		6.38			6.40	Cc1ccc(S(=O)(=O)Nc2ccccc2)cc1
5.46	1.4	5.15	2.1	5.89	5.33	C=C(C)CNS(=O)(=O)c1ccc(N)cc1
7.33	1.8	6.82	3.2	7.10	7.07	CC(F)(F)CNS(=O)(=O)c1ccc(N)cc1
7.05	57.5	5.25	62	7.02	5.29	C=C(Cl)CNS(=O)(=O)c1ccc(N)cc1
5.67	2	5.37	2	5.94	5.37	Nc1ccc(S(=O)(=O)NCCC(F)F)cc1
	23.1		1460			NS(=O)(=O)c1ccc(Nc2nc(Cl)nc(NCCO)n2)cc1
5.36	1	5.32	1.1	5.96	5.34	CC(=O)Nc1ccc(S(=O)(=O)NCC(C)F)cc1 (configuration not stated)
5.61	0.3	5.17	2.7	5.71	6.10	Nc1ccc(S(=O)(=O)NCCC(F)Cl)cc1 (configuration not stated)
5.85	1.7	5.68	1.5	6.02	5.63	C=CCNc1ccc(S(N)(=O)=O)cc1
5.61	0.6	5.29	2.1	5.82	5.85	CC(F)(Cl)CNS(=O)(=O)c1ccc(N)cc1 (configuration not stated)
6.87	3.2	6.20	4.7	6.53	6.37	CC1CN(C)S(=O)(=O)c2ccc(N)cc21 (configuration not stated)

Structure (SMILES)	pKi (Carbonic anhydrase 9)	Ratio Ki (Homo sapiens [1])	pKi (Carbonic anhydrase 1)	Ratio Ki (Homo sapiens [2])	pKi (Carbonic anhydrase 12)	pKi (Carbonic anhydrase 2)
C=C(Cl)CN(CC(=C)Cl)S(=O)(=O)c1ccc(N)cc1	7.14	68.2	5.17	92.8	7.10	5.30
NS(=O)(=O)c1ccc2c(c1)CCCN2	7.30	1.6	6.72	3.8	7.09	7.10
